According to publication PMC3914206:

Tests used:
panel of 442 kinases [1] = molecular target: T1, panel of 442 kinases (Homo sapiens, UniProt Q8TDC3); type: binding; set-up: KINOMEscan: ABL1(F317L)-phosphorylated / KINOMEscan: ABL1(H396P)-nonphosphorylated / KINOMEscan: ABL1(H396P)-phosphorylated / KINOMEscan: ABL1(M351T)-phosphorylated / KINOMEscan: ABL1(T315I)-phosphorylated / KINOMEscan: ABL1-nonphosphorylated / KINOMEscan: ABL1-phosphorylated / KINOMEscan: ACVR2A / KINOMEscan: ACVR2B / KINOMEscan: ADCK3 / KINOMEscan: ADCK4 / KINOMEscan: AKT1 / KINOMEscan: AKT3 / KINOMEscan: ALK / KINOMEscan: ARK5 / KINOMEscan: AURKA / KINOMEscan: AURKC / KINOMEscan: BIKE / KINOMEscan: BMPR1A / KINOMEscan: BMPR1B / KINOMEscan: BMX / KINOMEscan: BRK / KINOMEscan: BRSK1 / KINOMEscan: BRSK2 / KINOMEscan: CAMK1 / KINOMEscan: CAMK1D / KINOMEscan: CAMK1G / KINOMEscan: CAMK2A / KINOMEscan: CAMK2B / KINOMEscan: AAK1 / KINOMEscan: CAMK2D / KINOMEscan: CAMK2G / KINOMEscan: ABL1(F317I)-nonphosphorylated / KINOMEscan: ABL1(F317I)-phosphorylated / KINOMEscan: ABL1(F317L)-nonphosphorylated: unit: % Ctrl; settings: Compound Concentration 10 µM
T1 construct: purchased KINOMEscan
T1 sequence (Q8TDC3 1-778): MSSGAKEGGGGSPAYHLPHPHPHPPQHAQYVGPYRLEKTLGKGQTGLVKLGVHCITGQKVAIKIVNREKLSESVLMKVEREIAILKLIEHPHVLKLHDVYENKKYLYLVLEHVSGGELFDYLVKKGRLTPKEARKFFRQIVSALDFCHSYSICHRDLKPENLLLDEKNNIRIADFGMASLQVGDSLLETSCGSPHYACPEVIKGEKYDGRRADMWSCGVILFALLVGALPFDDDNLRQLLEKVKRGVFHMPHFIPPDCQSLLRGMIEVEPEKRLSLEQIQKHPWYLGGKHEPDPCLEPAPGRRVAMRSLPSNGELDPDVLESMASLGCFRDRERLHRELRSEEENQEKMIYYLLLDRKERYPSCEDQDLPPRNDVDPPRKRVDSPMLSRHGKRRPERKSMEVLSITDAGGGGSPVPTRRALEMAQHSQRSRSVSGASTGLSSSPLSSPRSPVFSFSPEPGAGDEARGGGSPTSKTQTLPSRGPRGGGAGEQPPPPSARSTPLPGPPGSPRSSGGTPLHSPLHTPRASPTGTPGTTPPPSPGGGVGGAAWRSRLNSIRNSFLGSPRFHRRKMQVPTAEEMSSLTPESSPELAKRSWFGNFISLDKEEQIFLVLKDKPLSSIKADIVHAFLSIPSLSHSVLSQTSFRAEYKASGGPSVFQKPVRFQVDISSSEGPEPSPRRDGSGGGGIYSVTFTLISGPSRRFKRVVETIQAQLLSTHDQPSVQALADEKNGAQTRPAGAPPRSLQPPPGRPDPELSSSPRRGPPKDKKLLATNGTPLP
Excerpt: (§1) We assessed the selectivity of members of this scaffold using the KINOMEscan methodology across a near comprehensive panel of 442 kinases [[18,27]].

panel of 442 kinases [2] = molecular target: T2, panel of 442 kinases (Homo sapiens, UniProt Q08881); type: binding; set-up: KINOMEscan: ABL1(F317L)-phosphorylated / KINOMEscan: ABL1(H396P)-nonphosphorylated / KINOMEscan: ABL1(H396P)-phosphorylated / KINOMEscan: ABL1(M351T)-phosphorylated / KINOMEscan: ABL1(T315I)-phosphorylated / KINOMEscan: ABL1-nonphosphorylated / KINOMEscan: ABL1-phosphorylated / KINOMEscan: ACVR2A / KINOMEscan: ACVR2B / KINOMEscan: ADCK3 / KINOMEscan: ADCK4 / KINOMEscan: AKT1 / KINOMEscan: AKT3 / KINOMEscan: ALK / KINOMEscan: ARK5 / KINOMEscan: AURKA / KINOMEscan: AURKC / KINOMEscan: BIKE / KINOMEscan: BMPR1A / KINOMEscan: BMPR1B / KINOMEscan: BMX / KINOMEscan: BRK / KINOMEscan: BRSK1 / KINOMEscan: BRSK2 / KINOMEscan: CAMK1 / KINOMEscan: CAMK1D / KINOMEscan: CAMK1G / KINOMEscan: CAMK2A / KINOMEscan: CAMK2B / KINOMEscan: AAK1 / KINOMEscan: CAMK2D / KINOMEscan: CAMK2G / KINOMEscan: ABL1(F317I)-nonphosphorylated / KINOMEscan: ABL1(F317I)-phosphorylated / KINOMEscan: ABL1(F317L)-nonphosphorylated: unit: % Ctrl; settings: Compound Concentration 10 µM
T2 construct: purchased KINOMEscan
T2 sequence (Q08881 1-620): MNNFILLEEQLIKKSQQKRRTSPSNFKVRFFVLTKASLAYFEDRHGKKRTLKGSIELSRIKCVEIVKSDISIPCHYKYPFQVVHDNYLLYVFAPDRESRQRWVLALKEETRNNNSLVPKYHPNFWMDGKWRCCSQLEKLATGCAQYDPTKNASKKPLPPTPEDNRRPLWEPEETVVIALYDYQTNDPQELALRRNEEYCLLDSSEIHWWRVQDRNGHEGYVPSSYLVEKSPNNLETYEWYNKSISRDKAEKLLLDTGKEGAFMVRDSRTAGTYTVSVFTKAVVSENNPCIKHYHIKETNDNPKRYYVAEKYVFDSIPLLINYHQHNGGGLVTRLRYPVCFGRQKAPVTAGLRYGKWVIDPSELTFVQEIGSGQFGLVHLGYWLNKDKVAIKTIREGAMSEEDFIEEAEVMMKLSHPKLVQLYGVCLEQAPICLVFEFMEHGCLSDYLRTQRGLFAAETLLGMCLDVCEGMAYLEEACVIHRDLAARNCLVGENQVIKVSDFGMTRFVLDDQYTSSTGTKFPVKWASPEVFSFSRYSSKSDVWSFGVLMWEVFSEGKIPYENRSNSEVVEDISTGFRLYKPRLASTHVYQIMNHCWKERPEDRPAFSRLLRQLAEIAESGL
Excerpt: as §1

Structure (SMILES)	KINOMEscan: BRSK1 (panel of 442 kinases [1])	KINOMEscan: ITK (panel of 442 kinases [2])
COc1cc(C(=O)N2CCC(N3CCN(C)CC3)CC2)ccc1Nc1ncc2c(n1)N1CCc3cccc(c31)C(=O)N2C [Compound 24]	82	
CCOc1cc(C(=O)N2CCC(N3CCN(C)CC3)CC2)ccc1Nc1ncc2c(n1)N(C1CCCC1)c1ccccc1C(=O)N2C [Compound 26]	100	100
COc1cc(C(=O)N2CCC(N3CCN(C)CC3)CC2)ccc1Nc1ncc2c(n1)N(C1CCCC1)c1ccccc1C(=O)N2C [Compound 25, 11-cyclopentyl-2-((2-methoxy-4-(4-(4-methylpiperazin-1-yl)piperidine-1-carbonyl)phenyl)amino)-5-methyl-5H-benzo[e]pyrimido[5,4-b][1,4]diazepin-6(11H)-one]	84	100
COc1cc(C(=O)N2CCC(N3CCN(C)CC3)CC2)ccc1Nc1ncc2c(n1)N(C)c1ccccc1C(=O)N2C [15 (LRRK2-IN-1)]	81	82
